Where “and” joins values, the source holds several entries; their conditions need not be identical. Equal values may be shown once.
Key:
rat heart = assay: Rat-Langendorff model (isolated perfused heart, ischaemia/reperfusion); details: individual rat hearts; for EDP: Degree of normalisation of EDP during reperfusion (amount above baseline EDP): 0 = recuperation to baseline EDP; for IC: Ischemic contracture: 4 μg/500 ml buffer, 20 min ischaemia; for Vfib: Number of ventricullar fibrillations during reperfusion: 40 min reperfusion
Method: A rat heart is rapidly dissected, attached by the aorta to a cannula and perfused with a physiological buffer (modified Krebs-Henseleit buffer: NaCl 118 mmol/l, KCl 4.7 mmol/l, MgSO4 1.2 mmol/l, KH2PO4 1.2 mmol/l, CaCl2 1.8 mmol/l, NaHCO3 23 mmol/l, glucose 11 mmol/l) without blood under 80 mmHg perfusion pressure. Oxygen is dissolved in the physiological buffer. The heart is paced atrially at 350 beats per minute. A balloon that can be optionally filled (adjustment preload) is inserted into the left ventricle. Diastolic pressure and the pressure developped are measured as well as the maximal rate of pressure development as a measure of contractility (inotropism) and the minimal rate of pressure decay as a measure of relaxation. Advantages of this model are: the heart is isolated and studied in controlled circumstances without interaction with other organs and the method is reasonably rapid and cheap. Disadvantages are: no blood perfusion, with only dissolved oxygen, therefore greater coronary flow rates with considerable vasodilatation of the coronary system; a closed system without metabolism and without interaction with other organs and a small animal model, relatively far away from clinical reality.
The study period of ischaemia is 20 minutes. The measurements after the study period of ischaemia (reperfusion phase) always last 40 minutes. Measurements before the study period of ischaemia last 30 minutes and are performed after stabilization. In the ischaemic preconditioning group the following is measured during these 30 minutes: 10 minutes baseline, 5 minutes ischaemia, 5 minutes reperfusion, 5 minutes ischaemia and 5 minutes reperfusion. In the group of the compounds according to the invention (4 μg/500 ml buffer solution) there is first 15 minutes baseline followed by 15 minutes treatment. Consequently, everything is time-matched.

[1] = test system: sheep heart (left ventricle); assay: Sheep model (normothermic myocardial ischaemia during extra corporal circulation); format: in vivo
Method: The model is a sheep anaesthetized with ketamine and isoflurane. The extra corporal circulation is connected by venous cannulation of both caval veins and arterial cannulation via the carotid. An additional cannula with flow meter in the right ventricle gives the flow rate over the coronary arteries. In addition to measurements of heart rate and arterial blood pressure, the left ventricle instantaneous pressure is measured as well as the left ventricle volumes via a conductance catheter. There is also a side-tubing on the arterial cannula of the artificial heart leading to the pulmonary artery. Via this route it is possible to modulate the left ventricle preload in a perfectly controlled manner in order to obtain load-independent measurements of the left ventricle contractility before and after the study period of ischaemia. Cardiac oxygen consumption was also measured as well as regional perfusion with the aid of coloured microspheres.
The study period of ischaemia was 30 minutes while the heart remained normothermic and was fully unloaded by the extra corporal circulation and venting of the ventricles. The control group was time-matched with the other groups. The ischaemic preconditioning group was subjected to 3 times 5 minutes of preconditioning ischaemia with 5 minute reperfusion intervals. In the three groups extra corporal circulation was started 30 minutes before the study period of ischaemia was imposed. The extra corporal circulation was stopped 40 minutes after the end of the study period of ischaemia. […] Only these four will be processed here. In the other groups, 7 experiments are always processed. Before each measurement of pressure-volume ratios in the left ventricle the system was switched to the right heart bypass model in which the venous flow is diverted into the extra corporal circulation via the caval veins and the blood is returned to the sheep via the pulmonary artery.

[2] = biological target: cloned human μ opioid receptor (Homo sapiens, UniProt P35372); assay: Radioligand binding, competition with [3H]DAMGO; details: read-out: Agonist receptor binding (pIC50) mu (converted)
Chain of cloned human μ opioid receptor (P35372 whole entry): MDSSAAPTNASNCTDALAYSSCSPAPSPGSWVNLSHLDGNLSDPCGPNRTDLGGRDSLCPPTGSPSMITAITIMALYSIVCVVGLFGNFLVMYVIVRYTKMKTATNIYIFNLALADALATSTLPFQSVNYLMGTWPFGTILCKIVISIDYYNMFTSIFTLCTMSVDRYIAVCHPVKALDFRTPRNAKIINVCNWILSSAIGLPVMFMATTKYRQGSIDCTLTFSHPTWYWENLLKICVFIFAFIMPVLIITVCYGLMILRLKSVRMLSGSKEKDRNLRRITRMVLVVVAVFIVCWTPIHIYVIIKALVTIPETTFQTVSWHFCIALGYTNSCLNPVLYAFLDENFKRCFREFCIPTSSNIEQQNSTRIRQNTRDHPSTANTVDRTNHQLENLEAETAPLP

Compound | melting point [°C] | Recup: % recuperation in developed pressure at the end of reperfusion (rat heart) | EDP: Degree of normalisation of EDP during reperfusion (amount above baseline EDP) (rat heart) | IC: Ischemic contracture (rat heart) | Vfib: Number of ventricullar fibrillations during reperfusion (rat heart) | other results
CCOC(=O)N1CCC(c2ccccc2)(c2nccn2Cc2ccccc2)CC1 [Compound 1, ethyl 4-phenyl-4-[1-(phenylmethyl)-1H-imidazol-2-yl]-1-piperidinecarboxylate] |  | 92% and 85% and 82% | 0 mmHg and +7 mmHg and +8 mmHg | 4 mmHg and 6 mmHg and 8 mmHg | 0 (2×) and 1 (short) | Tau (ventricular relaxation) ([1]; compared to control group 70 and 100 minutes after end of ischaemia): significantly lower; Preload recruitable stroke work (PRSW) ([1]; compared to control group after 70 and 100 minutes of reperfusion): significantly better; Cardiac flow after reperfusion ([1]; compared to control group, no significant difference): tendency for cardiac flow to be higher; Contractile efficacy (O2-consumption converted into PVA) ([1]; control group 32.8%, ischaemic preconditioning group 44.5%, p<0.001): 46.7%
O=C(c1ccccc1)N1CCC(c2ccccc2)(c2nccn2Cc2ccccc2)CC1 [Compound 2] | 122.7 |  |  |  |  | 
CCCOC(=O)N1CCC(c2ccccc2)(c2nccn2Cc2ccccc2)CC1 [Compound 24] |  | 91% and 85% and 87% | 0 mmHg and +5 mmHg and +7 mmHg | 10 mmHg and 5 mmHg and 7 mmHg | 0 (2×) and 1 (short) | 
CC(C)OC(=O)N1CCC(c2ccccc2)(c2nccn2Cc2ccccc2)CC1 [Compound 25] |  | 79% and 85% and 75% | +6 mmHg (2×) and +10 mmHg | 5 mmHg and 7 mmHg (2×) | 0 and 1 (short) and 2 (short) | 
COC(=O)c1ccc(Cn2ccnc2C2(c3ccccc3)CCN(c3nc4ccccc4o3)CC2)cc1 [Compound 102] |  |  |  |  |  | IC50 [2]: > 1000 nM

Continued, in another order:

melting point [°C] | Compound | Recup: % recuperation in developed pressure at the end of reperfusion (rat heart) | EDP: Degree of normalisation of EDP during reperfusion (amount above baseline EDP) (rat heart) | IC: Ischemic contracture (rat heart) | Vfib: Number of ventricullar fibrillations during reperfusion (rat heart) | other results
149.1 | CCOC(=O)N1CCC(c2ccccc2)(c2nccn2Cc2ccc(C(=O)OC)cc2)CC1 [Compound 3] |  |  |  |  | 
84.2 | CCN/C(=N/C#N)N1CCC(c2ccccc2)(c2nccn2Cc2ccccc2)CC1 [Compound 4] |  |  |  |  | 
251.6 | CCOC(=O)N1CCC(c2ccccc2)(c2nccn2Cc2ccc(C(=O)O)cc2)CC1 [Compound 8] |  |  |  |  | 

Source: patent US7390822B2, “Substituted 4-phenyl-4-[1H-imidazol-2-yl]-piperidine derivatives for reducing ischaemic damage” (Janssen Pharmaceutica, N.V., priority 2001, dated 2008)
